Patent EP0876144B1, “THERAPEUTIC ANTI-ASTHMA AGENTS CONTAINING EBSELEN” (A. Nattermann & Cie. GmbH, priority 1996, dated 1997)
“Also recorded” adds a separate entry of the source.

Columns and labels:
[1] = tested on: Meerschweinchen, die ein Antigen induziertes Asthma besitzen; experiment: antigen (ovalbumin)-induced asthma in conscious, spontaneously breathing guinea pigs; lung function (sGaw) by body plethysmograph; type: in vivo, Hartley Meerschweinchen; conditions: for Bereiche der Unterdrückung der unmittelbaren asthmatischen Reaktionen: comparison of Ebselen group (5 mg/kg i.p.) with Dexamethason group (1 mg/kg i.p., 4 days)
Experimental: Die Wirksamkeiten von Ebselen wurden unter Verwendung von Meerschweinchen, die ein Antigen induziertes Asthma besitzen, durch Überprüfung der Lungenfunktionen unter Bewußtsein und spontaner Atmung getestet.
Jedes der weiblichen Hartley Meerschweinchen (SLC) (4 Wochen alt, Körpergewicht etwa 250 bis 300 g) wurden vorbehandelt mit Cyclophosmid (2 mg/kg). Nach zwei Tagen wurden intraperitoneal Ovalbumin (OA, 1 mg) und Aluminiumgel (1 g) injiziert. Drei Wochen später wurden wiederum OA (0,1 mg) und Aluminiumgel (1 g) intraperitoneal injiziert. Die so behandelten Meerschweinchen wurden als sensibilisierte Tiere benutzt. Zu diesem Testzeitpunkt waren die Meerschweinchen elf Wochen alt und hatten ein Körpergewicht von 450 bis 580 g.
Körper-Pressmograph, Drucktyp • Pulmotacograph (TP-601G, Nippon Kodensha) • Differentialmeßwandler (T-601, Nippon Kodensha) • Gasflußwiderstandsrohr (Lilly type, Nippon Kodensha) • Oszilloskop (DS-9121, Iwasaki Tsushinki) • Computer (Macintosh Centris 660 AV, Apple) • Software (zur Analyse der Atmung basierend auf LabView für Macintosh 3.01) • Zerstäuber (NE-U10, Tateishi Denki)
Dexamethason (1 mg/kg) wurde in 100 % DMSO (1 ml) gelöst. Diese Lösung wurde während vier aufeinander folgende Tage intraperitoneal injiziert. Die letzte intraperitoneale Injektion wurde 24 Stunden vor der Induzierung der Antigene durchgeführt.
Gruppe der mit Ebselen vorbehandelten Meerschweinchen Ebselen (5 mg/kg) wurde in 100 % DMSO (1 ml) gelöst. Diese Lösung wurde intraperitoneal 30 Minuten vor der Induzierung der Antigene injiziert.
100 % DMSO (1 ml) wurde intraperitoneal 30 Minuten vor der Induzierung der Antigene injiziert.
OA (40 mg) wurde in einer physiologischen Salzlösung (4 mg/ml) gelöst. Diese Lösung wurde 2 Minuten lang unter Verwendung eines Ultraschallzerstäubers inhaliert.
In Übereinstimmung mit dem Verfahren von Agrawal (Agrawal, K. P.; Specific Airway Conductance in Guinea Pigs: "Normal Values and Histamine Induced Fall", Respiratory Physiology 43:23, 1981) wurde jedes Meerschweinchen auf einem Körper-Pressmograph, Drucktyp, fixiert und die prozentuale Variation des spezifischen Luftweg-Leitwertes (sGaw) wurde gemessen. Der Luftfluß durch die Nase und die Änderung des Innendruckes der Box wurden aufgezeichnet. Die entsprechenden Wellenformen' wurden digital bei 1.024 Hz gesammelt und die Punkte vom Ende des Ausatmens bis zum Beginn des Einatmens wurden als rückläufige Linie aufgezeichnet. Unter Verwendung der Neigung (tan) der rückläufigen Linie wurde der sGaw erhalten. Der sGaw-Wert wurde vor der Induzierung der Antigene gemessen. Nachdem eine physiologische Salzlösung für zwei Minuten inhaliert wurde, wurde der sGaw nochmals gemessen, um sicherzustellen, daß sich keine Daten geändert hatten. […]

Lipoxygenase = conditions: Peter Kuhl et al, Prostaglandins, 31 (1986), 1029-1048; cited from earlier work
[2] = acute toxicity test (LD50) in mice; conditions: mouse, in vivo, Maus
Description: (§1) Darüber hinaus konnte gefunden werden, daß Ebselen sehr sicher ist, wie dies durch die nachfolgenden und in der Tabelle 1 wiedergegebenen LD50-Werte bewiesen wird, wobei diese Werte das Ergebnis eines Toxizitätstests unter Verwendung von Mäusen und Ratten, denen diese Verbindungen oral oder intraperitoneal verabreicht wurden, darstellen. Selbst dann, wenn diese Verbindungen in hohen Dosen verabreicht werden, zeigen sie keine Nebeneffekte, die ernsthafte Probleme verursachen. Tabelle 1

[3] = acute toxicity test (LD50) in rats; conditions: rat, in vivo, Ratte
Description: as §1

| Compound | Bereiche der Unterdrückung der unmittelbaren asthmatischen Reaktionen [1] | Lipoxygenase inhibierende Wirkung (Lipoxygenase) | Unterdrückung der unmittelbaren asthmatischen Reaktionen (sGaw) ([1]; Ebselen 5 mg/kg i.p. 30 min before antigen challenge, compared with control group (DMSO)) | Unterdrückung der späten asthmatischen Reaktionen (sGaw) ([1]; Ebselen 5 mg/kg i.p. 30 min before antigen challenge, compared with control group (late reactions at 180 to 420 min in controls)) | LD50 ([2]; ip) [mg/kg] | LD50 ([2]; po) [mg/kg] | LD50 ([3]; ip) [mg/kg] | LD50 ([3]; po) [mg/kg] |
| --- | --- | --- | --- | --- | --- | --- | --- | --- |
| C[C@@H]1C[C@H]2[C@@H]3CCC4=CC(=O)C=C[C@]4(C)[C@@]3(F)[C@@H](O)C[C@]2(C)[C@@]1(O)C(=O)CO [Dexamethason, reference compound] | überwiegend gleich | – | – | – | – | – | – | – |
| O=c1c2ccccc2[se]n1-c1ccccc1 [Ebselen, 2-Phenyl-1,2-Benzoisoselenazole-3(2H)-one] | überwiegend gleich | deutliche Lipoxygenase inhibierende Wirkung | wirkungsvoller unterdrückt | wirkungsvoller unterdrückt; also recorded: erheblich und vollständig unterdrückt | 740 | > 6810 | 580 | > 6810 |
